# Data as given in US20240189344A1, “METHODS USING CARBON DIOXIDE AND OXYGEN TO IMPROVE CHARACTERISTICS OF POULTRY” (priority 2022, published 2024).
# How the values were obtained:
# [1] = test system: fertilized Ross 708 chicken eggs; assay: Percent of fertile eggs hatched at end of 21 days of incubation under controlled CO2; format: in vivo
# Experimental: (§1) 900 fertilized eggs from a commonly used commercial chicken strain, Ross 708, that were less than 1 week old since being laid, and laid in the same laying facility by layers (chickens) of the same age, were split equally into three batches of 300 each. One batch, referred to as control batch, was incubated for 18 days in an atmosphere in which no additional CO2 was injected into this atmosphere from any source outside the egg. For this batch, the CO2 concentration inside the incubator varied between the CO2 concentration of the ambient atmosphere (i.e. about 409 ppm) and as high as 1,500 ppm (resulting from CO2 generation by the eggs themselves). The second batch, referred to as 4,000 ppm test CO2 batch or 0.4% CO2 test batch, was incubated for 18 days wherein the CO2 concentration in the incubator from the start of the first day through the end of the eighteenth day was maintained at 4,000 ppm (i.e. 0.4% CO2) by occasional injections of CO2 as necessary. The third batch, referred to as 10,000 ppm test CO2 batch or 1% CO2 test batch, was incubated for 18 days according to Regimen 1 described herein, wherein the CO2 concentration in the incubator from the start of the first day through the end of the eighteenth day was maintained at 10,000 ppm (i.e. 1% CO2) by occasional injections of CO2 as necessary. All three batches were incubated at approximately 100° F. and between 30% and 70% relative humidity. At the end of the eighteenth day of incubation, all three batches of eggs were transferred to hatcher equipment, where the eggs hatched over the next 3 days. No external CO2 was injected into the hatcher from any source outside the eggs for this period of 3 days. Thus, the only difference between the conditions under which the three batches were incubated was that in the control batch no additional CO2 was injected, whereas for the other two batches additional, external CO2 was injected to subject the eggs to CO2 concentrations of 4,000 ppm and 10,000 ppm respectively. During the incubation period the oxygen concentration in the control incubator was always above 20%, whereas in the 4,000 ppm and 10,000 ppm CO2 controlled incubators, the oxygen level was typically above 19%.
# (§2) 600 fertilized eggs from a commonly used commercial chicken strain, Ross 708, that were less than 1 week old since being laid, and laid in the same laying facility by layers (chickens) of the same age, were split equally into batches of 300 each. One batch, referred to as control batch, was incubated for 18 days in an atmosphere in which no additional CO2 was injected into this atmosphere from any source outside the egg. […]
# [2] = Average bird weight at hatch and at 28 days after CO2 incubation; format: in vivo, chicken
# Experimental: as §1
# (§3) Once the chicks hatched, approximately 150 of the male chicks from each batch were taken to grow cages and they began to be fed water and feed. From this point onwards, there was no difference in the treatment of the birds. 28 days after hatching the chickens from each batch were weighed and then stunned. Then the birds were measured for Woody Breast scores by manual palpitation by a trained panel of experts under single-blinded conditions. Each breast was given a score of either 0, 1, 2 or 3. Score 0 means no WB was detected. Score 3 meant very high levels of WB detected and scores 1 and 2 meant intermediate levels of WB were detected.
# as §2, with “egg. For this batch, the CO2 concentration inside the incubator varied between ambient atmospheric (i.e. about 409 ppm) and as high as 1,500 ppm (resulting from CO2 generation by the egg).” for “egg.”
# Ross 708 chickens = assay: Livability: percentage of hatched birds surviving to 28 days after CO2 incubation; format: in vivo, chicken; settings: for percentage of birds that survived compared to control: 28 days
# Experimental: as §1, with “No external CO2 was injected into the hatcher from any source outside the eggs for this period of 3 days. Thus, the only difference between the conditions under which the three batches were incubated was that in the control batch no additional CO2 was injected, whereas for the other two batches additional, external CO2 was injected to subject the eggs to CO2 concentrations of 4,000 ppm and 10,000 ppm respectively. During the incubation period the oxygen concentration in the control incubator was always above 20%, whereas in the 4,000 ppm and 10,000 ppm CO2 controlled incubators, the oxygen level was typically above 19%.” left out
# Once the chicks hatched, approximately 150 of the male chicks from each batch were taken to grow cages and they began to be fed water and feed. […] Then the birds were measured for Woody Breast scores by manual palpitation by a trained panel of experts under single-blinded conditions. […] Score 0 means no WB was detected. Score 3 meant very high levels of WB detected and scores 1 and 2 meant intermediate levels of WB were detected. […]
# [3] = test system: Ross 708 chickens (Woody Breast); assay: Woody Breast scores by manual palpation in chickens hatched from eggs incubated under controlled CO2; format: in vivo, chicken
# Experimental: as §1, §3
# as §2, with “egg. For this batch, the CO2 concentration inside the incubator varied between ambient atmospheric (i.e. about 409 ppm) and as high as 1,500 ppm (resulting from CO2 generation by the egg).” for “egg.”
# [4] = Regimen 1, constant 1% CO2 for 18 days
compound,measurement,setting,value
"O=C=O [CO2, carbon dioxide]",percent of fertile eggs that hatched at the end of 21 days of incubation,"[1]; Regimen 1, constant 10,000 ppm (1%) CO2 for 18 days, control 88.1%",93.5%
same,percent of fertile eggs that hatched at the end of 21 days of incubation,"[1]; Regimen 2, 1% CO2 ramp up, control 91%",94.1%
same,percent of fertile eggs that hatched at the end of 21 days of incubation,"[1]; Regimen 3, 0.75% CO2 on-off, control 88.7%",96%
same,percent of fertile eggs that hatched at the end of 21 days of incubation,"[1]; constant 4,000 ppm (0.4%) CO2 for 18 days, control 88.1%",95.6%
same,"average final weight at 28 days, higher than control by",[2]; [4],approximately 5%
same,increase of average weight just after hatch vs control,[2]; [4],approximately 5%
same,"average weight at hatch, lower than control by","[2]; Regimen 2, 1% CO2 ramp up",approximately 6.5%
same,weight at 28 days compared to control birds,"[2]; Regimen 2, 1% CO2 ramp up",slightly heavier
same,"average weight at hatch, lower than control by","[2]; Regimen 3, 0.75% CO2 on-off",approximately 1.5%
same,"weight at 28 days, heavier than control birds by","[2]; Regimen 3, 0.75% CO2 on-off",11%
same,more hatched birds surviving to end of 28 days compared to control,Ross 708 chickens; [4],Approximately 4%
same,percentage of birds that survived compared to control,"Ross 708 chickens; Regimen 2, 1% CO2 ramp up",no statistical difference
same,percentage of birds that survived compared to control,"Ross 708 chickens; Regimen 3, 0.75% CO2 on-off",no statistical difference
same,% of birds scoring 1 (Woody Breast score),"[3]; Regimen 1, constant 10,000 ppm (1%) CO2 for 18 days, 28 days after hatching, control 24%",15%
same,incidence of WB compared to control birds,"[3]; Regimen 1, constant 10,000 ppm (1%) CO2 in incubator for 18 days, scored 28 days after hatching",significantly reduced
same,% of birds scoring 1 (Woody Breast score),"[3]; Regimen 2, 1% CO2 ramp up, 28 days after hatching, control 13%",8%
same,incidence of WB compared to control birds,"[3]; Regimen 2, CO2 ramp up in equal daily steps to 10,000 ppm (1%) on day 18, 28 days after hatching",significantly reduced
same,% of birds scoring 2 (Woody Breast score),"[3]; Regimen 3, 0.75% CO2 on-off, 28 days after hatching, control 5%",1%
same,% of birds scoring 1 (Woody Breast score),"[3]; Regimen 3, 0.75% CO2 on-off, 28 days after hatching, control 23%",17%
same,% of birds scoring 0 (Woody Breast score),"[3]; Regimen 3, 0.75% CO2 on-off, 28 days after hatching, control 73%",82%
same,incidence of WB compared to control birds,"[3]; Regimen 3, 7,500 ppm (0.75%) CO2 on-off on alternate 24 h periods till day 18, 28 days after hatching",significantly reduced
same,WB scores compared to control,"[3]; constant 4,000 ppm (0.4%) CO2 for 18 days, 28 days after hatching",higher
same,% of birds scoring 2 (Woody Breast score),"[3]; constant 4,000 ppm (0.4%) CO2 for 18 days, 28 days after hatching, control 1%",9%
